Reference: PubChem BioAssay (NCI)
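Each compound was tested at five concentrations against cells in 96-well plates for 48 hours. GI50: concentration for 50% inhibition of growth. TGI is the concentration that stops growth completely.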

Experiments:
Assay in all cases: NCI anticancer screen, dose series, 48 h
[1] = tested on: IGROV1 ovarian
[2] = tested on: RPMI-8226 leukemia
[3] = tested on: HL-60(TB) leukemia
[4] = tested on: COLO 205 colon
[5] = tested on: HOP-62 NSCLC
[6] = tested on: HT29 colon
[7] = tested on: NCI-H226 lung
[8] = tested on: OVCAR-5 ovarian
[9] = tested on: MALME-3M melanoma
[10] = tested on: U251 CNS

| SMILES | GI50 [1] [µM] | TGI [1] [µM] | GI50 [2] [nM] | TGI [2] [µM] | GI50 [3] [nM] | TGI [3] [µM] | GI50 [4] [µM] | TGI [4] [µM] | GI50 [5] [µM] | TGI [5] [µM] | GI50 [6] [µM] | TGI [6] [µM] | GI50 [7] [µM] | TGI [7] [µM] | GI50 [8] [µM] | TGI [8] [µM] | GI50 [9] [µM] | TGI [9] [µM] | GI50 [10] [µM] | TGI [10] [µM] |
| --- | --- | --- | --- | --- | --- | --- | --- | --- | --- | --- | --- | --- | --- | --- | --- | --- | --- | --- | --- | --- |
| O=C(Nc1ccc(Cl)c(Cl)c1)NS(=O)(=O)c1cnccc1Oc1ccc(F)cc1 | 2.69 | 8.59 | 2010 | 5.36 | 2120 | 7.19 | 2.97 | 7.59 | 6.14 | 51.2 | 3.63 | > 100 | 9.77 | > 100 | 6.28 | 95.2 | 2.53 | 7.55 | 3.42 | 37.2 |
| Cc1cc(I)cc(CN(C)CCCN2CCCC2)c1O | 19.5 | 44.7 | 15600 | 37.5 | 13400 | 31.3 | 15.6 | 33.1 | 16.4 | 34.8 | 9.52 | 24.4 | 30.7 | > 100 | 27.8 | > 94.7 | 16.6 | 33.1 | 19.4 | 49.5 |
| O=[N+]([O-])c1ccc(Sc2c3ccccc3nc3cc(Cl)ccc23)cc1 | > 100 | > 100 | – | > 100 | – | > 100 | > 100 | > 100 | > 100 | > 100 | – | > 100 | > 100 | > 100 | > 100 | > 100 | > 100 | > 100 | > 100 | > 100 |
| COC(=O)C1(C)Cc2cc(OC(C)=O)c(OC(C)=O)cc2N1 (configuration not stated) | 5.93 | 13.9 | 1870 | 10.6 | 2420 | > 24.2 | 6.49 | > 40.9 | > 100 | > 100 | 13 | 56.7 | 14.8 | 60 | 20 | 47 | 3.18 | 15.4 | 8.09 | 21.9 |
| O=C(O)[C@H](c1ccccc1)[C@@H](C(=O)O)c1ccccc1 | – | > 100 | – | > 100 | – | > 100 | – | > 100 | – | > 100 | – | > 100 | – | > 100 | – | > 100 | – | > 100 | – | > 100 |
| C=C1C(=O)O[C@H]2[C@H]1CC/C(COC(=O)NCC(C)c1ccc(CC(C)C)cc1)=C\CC[C@@]1(C)O[C@@H]21 (some centres not stated) | 0.551 | 1.18 | 681 | 1.9 | 786 | 2.83 | 1.3 | 5.3 | 5.29 | 10.5 | 1.03 | 2.52 | 1.05 | 4.59 | 3.56 | 7.73 | 0.926 | 2.89 | 4.32 | 8.7 |
| Cc1nc(C(N)=S)sc1C(=O)/C=C/c1c(O)ccc2ccccc12 | – | > 100 | – | > 93.5 | – | 65.3 | – | > 100 | – | > 100 | – | > 100 | – | > 100 | – | > 100 | – | > 100 | – | > 100 |
